Tests used:
p38 = p38 activation (phosphorylation) immunoblot in HUVEC; type: cell-based, human; conditions: 100 μmol/l; 0 to 60 minutes
Experimental: (§1) First, to a HuMedia-EB2 medium (Kurabo) to which 2 v/v % inactivated fetal bovine serum (FBS) had been added, 2-Cl—C.OXT-A was added so that its concentration became 100 μmol/l. Thus, a medium was prepared. Using the medium, human umbilical vein endothelial cells (HUVEC) were cultured for predetermined periods (0, 10, 20, 30, 45, and 60 minutes).
After the culture, cells were collected. The collected cells were lysed by adding a cell lysis buffer (SDS-lysis buffer) thereto, and heat-denatured at 95° C. for 5 minutes. The solubilized protein in an amount corresponding to 5 v/v % of the heat-denatured cell lysate was subjected to electrophoresis using 10% SDS-polyacrylamide gel, whereby the solubilized protein was transferred onto a nitrocellulose membrane (Amersham Biosciences). […]
(§2) The enzymes were visualized with SuperSignal (registered trademark) West Pico Chemiluminescent Substrate (Pierce), and detected by being exposed to RX—U X-ray film (FUJIFILM Corporation). From the detected bands, the respective phosphoenzymes and total enzymes were quantified using an NIH image software. Furthermore, the relative value (−fold) of each phosphoenzyme was calculated by substituting the measured value of the phosphoenzyme into the following equation (III).

[1] = test system: Human umbilical vein endothelial cells (HUVEC); assay: Measurement of cell migration (CytoSelect 24-well Cell Migration Assay); type: cell-based
Experimental: Measurement of cell migration was carried out in the following manner using CytoSelect 24-well Cell Migration Assay (CBA-100, Cell Biolabs) kits. First, sample solutions were prepared by dissolving 2-Cl—C.OXT-A in physiological saline so as to achieve predetermined concentrations (0.1, 0.5, 1 mmol/l). Then, the sample solutions containing 2-Cl—C.OXT-A at the predetermined concentrations respectively were added to HuMedia-EB2 media (Kurabo) to which 2 v/v % inactivated fetal bovine serum (FBS) had been added so that their concentrations became 10 v/v %. Thus, cell migration media were prepared. The final concentrations of 2-Cl—C.OXT-A in the cell migration media were 10, 50, and 100 μmol/l.
Human umbilical vein endothelial cells (HUVEC) were suspended in a HuMedia-EB2 medium (Kurabo) to which 2 v/v % inactivated fetal bovine serum (FBS) had been added at a density of 0.5×10^6 cells/ml. Thus, a cell suspension was prepared. 300 μl of the cell suspension was added to an upper compartment (i.e., in an insert) of a polycarbonate membrane plate provided in the kit, and 500 μl of the cell migration medium was added to a lower compartment (i.e., in a well) of the plate. Then, the cells were cultured at 37° C. for 24 hours. After the completion of the culture, the membrane on the inner bottom face of the insert was wiped out with a cotton swab to remove the cells on the membrane. Then, cells having migrated to the rear face of the membrane (the membrane on the outer bottom face of the insert) were stained using a staining solution provided in the kit, and then photographed from below the insert. After the photographing, the dye was extracted with an extracting solution provided in the kit, and the absorbance at 560 nm was measured using a microplate reader. As a control, a HuMedia-EB2 medium (Kurabo) to which 2 v/v % inactivated fetal bovine serum (FBS) had been added was used instead of the cell migration medium to carry out the culture, and the cells were stained and the absorbance was measured in the same manner as in the above. Then, using the above equation (I), the relative absorbance in the culture using each of the cell migration media containing 2-Cl—C.OXT-A at the predetermined concentrations was calculated.

ERK = ERK activation (phosphorylation) immunoblot in HUVEC; type: cell-based, human; conditions: Example 8, medium No. 11: 2-Cl—C.OXT-A 100 μmol/l
MEK = MEK phosphorylation immunoblot in HUVEC; type: cell-based, human; conditions: 100 μmol/l; 15 minutes after the addition
Experimental: as §1
After the culture, cells were collected. The collected cells were lysed by adding a cell lysis buffer (SDS-lysis buffer) thereto, and heat-denatured at 95° C. for 5 minutes. […]
as §2, with “(III). […]” for “(III).”
In the present example, the effect of 2-Cl—C.OXT-A used in Example 1 on the phosphorylation of MEK was examined. MEK is a protein kinase involved in the angiogenesis signal transduction pathway and located upstream of ERK measured in Example 3, and acts to promote angiogenesis. […]

SMILES: Nc1nc(Cl)nc2c1ncn2C1CC(CO)C1CO (stereo not drawn) [2-Cl—C.OXT-A, 6-amino-2-chloro-9-[trans-trans-2,3-bis(hydroxymethyl)cyclobutyl]purine]
- amount of pp 38 (p38): not changed
- stained area (cell migration photographs) ([1]; final concentration 10 μmol/l to 100 μmol/l, 24 hours, versus control): larger than that in the control
- relative absorbance (cell migration) ([1]; final concentration 50 μmol/l): 2.1
- cell migration promoting-activity compared with VEGF ([1]; final concentration 50 μmol/l, VEGF 10 ng/ml): higher than that in Comparative Example 7
- relative absorbance (cell migration) ([1]; final concentration 10 to 100 μmol/l, versus control): higher than that of the control
- migration promoting-activity compared with physiological saline ([1]; final concentrations 50 and 100 μmol/l, p<0.02): significantly higher than that in Comparative Example 8
- pERK (ERK): increased
- relative value (−fold) of pMEK (MEK): about 3.5 fold
